# According to ChEMBL document CHEMBL1909046, “DrugMatrix in vitro pharmacology data”:
# Biological target: T1, Endothelin-1 receptor (Homo sapiens, UniProt P25101); further: in other assays of this panel Not Active means under 50% inhibition at 10 µM
# T1 sequence (P25101 whole entry): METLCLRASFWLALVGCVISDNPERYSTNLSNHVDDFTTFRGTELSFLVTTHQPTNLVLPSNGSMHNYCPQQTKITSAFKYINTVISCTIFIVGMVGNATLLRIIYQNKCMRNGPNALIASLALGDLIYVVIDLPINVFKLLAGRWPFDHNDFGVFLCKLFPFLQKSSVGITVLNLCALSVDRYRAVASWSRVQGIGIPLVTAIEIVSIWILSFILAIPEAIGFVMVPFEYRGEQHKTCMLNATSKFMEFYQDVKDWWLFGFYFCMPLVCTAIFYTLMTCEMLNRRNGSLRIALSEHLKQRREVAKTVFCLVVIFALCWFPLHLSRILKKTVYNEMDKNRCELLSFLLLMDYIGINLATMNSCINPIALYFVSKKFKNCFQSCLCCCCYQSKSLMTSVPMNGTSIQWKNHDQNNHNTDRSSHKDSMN
# Assay type: cell membranes, CHO-K1, Membrane
# Details: cho-k1
row,Compound,IC50
1,C[C@]12CC[C@@H]3c4ccc(O)cc4CC[C@H]3[C@@H]1CCC2=O [ESTRONE],Not Active
2,NC1=NC(=O)C(c2ccccc2)O1 (configuration not stated) [PEMOLINE],Not Active
3,CN(C)c1nc(N(C)C)nc(N(C)C)n1 [ALTRETAMINE],Not Active
4,CCn1cc(C(=O)O)c(=O)c2cc(F)c(N3CCNCC3)cc21 [NORFLOXACIN],Not Active
5,CCCN1C[C@H](CSC)C[C@@H]2c3cccc4[nH]cc(c34)C[C@H]21 [PERGOLIDE],Not Active
6,Clc1cccc(Cl)c1NC1=NCCN1 [CLONIDINE],Not Active

# Test system: not listed separately
# Assay: DRUGMATRIX: Glutamate, Kainate radioligand binding (ligand: [3H] Kainic acid)
# Assay type: cell membranes, Rattus norvegicus, Wistar, Brain, Membrane
# Details: Not Active = under 50% inhibition at 10 µM
Compound,IC50,Ki
C[C@]12CC[C@@H]3c4ccc(O)cc4CC[C@H]3[C@@H]1CCC2=O [ESTRONE],Not Active,Not Active
NC1=NC(=O)C(c2ccccc2)O1 (configuration not stated) [PEMOLINE],Not Active,Not Active
CN(C)c1nc(N(C)C)nc(N(C)C)n1 [ALTRETAMINE],Not Active,Not Active
CCn1cc(C(=O)O)c(=O)c2cc(F)c(N3CCNCC3)cc21 [NORFLOXACIN],Not Active,Not Active
CCCN1C[C@H](CSC)C[C@@H]2c3cccc4[nH]cc(c34)C[C@H]21 [PERGOLIDE],Not Active,Not Active
Clc1cccc(Cl)c1NC1=NCCN1 [CLONIDINE],Not Active,Not Active

# Test system: not listed separately
# Assay: DRUGMATRIX: Glutamate, NMDA, Agonism radioligand binding (ligand: [3H] CGP-39653)
# Assay type: cell membranes, Rattus norvegicus, Wistar, Cerebral cortex, Membrane
# Details: Not Active = under 50% inhibition at 10 µM
Compound,IC50,Ki
C[C@]12CC[C@@H]3c4ccc(O)cc4CC[C@H]3[C@@H]1CCC2=O [ESTRONE],Not Active,Not Active
NC1=NC(=O)C(c2ccccc2)O1 (configuration not stated) [PEMOLINE],Not Active,Not Active
CN(C)c1nc(N(C)C)nc(N(C)C)n1 [ALTRETAMINE],Not Active,Not Active
CCn1cc(C(=O)O)c(=O)c2cc(F)c(N3CCNCC3)cc21 [NORFLOXACIN],Not Active,Not Active
CCCN1C[C@H](CSC)C[C@@H]2c3cccc4[nH]cc(c34)C[C@H]21 [PERGOLIDE],Not Active,Not Active
Clc1cccc(Cl)c1NC1=NCCN1 [CLONIDINE],Not Active,Not Active

# Biological target: T2, 3-hydroxy-3-methylglutaryl-coenzyme A reductase (Homo sapiens, UniProt P04035);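 further: enzyme inhibition assay of HMG-CoA reductase using radiolabeled [14C]HMG-CoA as substrate; in other assays of this panel Not Active means under 50% inhibition at 10 µM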
# T2 sequence (P04035 whole entry): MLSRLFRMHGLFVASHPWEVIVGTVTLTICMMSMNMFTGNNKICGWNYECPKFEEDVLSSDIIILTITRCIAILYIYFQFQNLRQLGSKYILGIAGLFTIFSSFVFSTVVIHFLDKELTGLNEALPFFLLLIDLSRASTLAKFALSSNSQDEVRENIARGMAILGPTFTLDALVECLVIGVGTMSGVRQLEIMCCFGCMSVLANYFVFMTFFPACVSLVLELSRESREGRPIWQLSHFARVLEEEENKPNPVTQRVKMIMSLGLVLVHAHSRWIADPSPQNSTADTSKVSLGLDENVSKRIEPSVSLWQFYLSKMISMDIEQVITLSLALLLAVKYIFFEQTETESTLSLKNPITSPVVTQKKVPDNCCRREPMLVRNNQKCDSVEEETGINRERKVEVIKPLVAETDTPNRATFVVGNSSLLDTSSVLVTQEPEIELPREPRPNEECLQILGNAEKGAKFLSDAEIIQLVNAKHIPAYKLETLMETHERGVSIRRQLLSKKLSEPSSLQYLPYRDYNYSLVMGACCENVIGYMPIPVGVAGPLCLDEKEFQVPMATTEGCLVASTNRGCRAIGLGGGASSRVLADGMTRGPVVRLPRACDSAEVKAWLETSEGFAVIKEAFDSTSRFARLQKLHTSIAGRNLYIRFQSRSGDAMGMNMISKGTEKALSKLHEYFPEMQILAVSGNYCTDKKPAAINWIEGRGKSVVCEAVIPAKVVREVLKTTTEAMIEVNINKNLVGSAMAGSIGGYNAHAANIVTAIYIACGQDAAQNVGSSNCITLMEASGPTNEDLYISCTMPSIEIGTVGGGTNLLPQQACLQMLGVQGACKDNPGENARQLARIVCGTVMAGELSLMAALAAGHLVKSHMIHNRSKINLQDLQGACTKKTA
# Parameters: species or system Escherichia coli
# Details: not given
row,Compound,IC50
1,C[C@]12CC[C@@H]3c4ccc(O)cc4CC[C@H]3[C@@H]1CCC2=O [ESTRONE],Not Active
2,NC1=NC(=O)C(c2ccccc2)O1 (configuration not stated) [PEMOLINE],Not Active
3,CN(C)c1nc(N(C)C)nc(N(C)C)n1 [ALTRETAMINE],Not Active
4,CCn1cc(C(=O)O)c(=O)c2cc(F)c(N3CCNCC3)cc21 [NORFLOXACIN],Not Active
5,CCCN1C[C@H](CSC)C[C@@H]2c3cccc4[nH]cc(c34)C[C@H]21 [PERGOLIDE],Not Active
6,Clc1cccc(Cl)c1NC1=NCCN1 [CLONIDINE],Not Active

# Test system: not listed separately
# Assay: DRUGMATRIX: Interleukin IL-1 radioligand binding (ligand: [125I] interleukin 1beta)
# Assay type: cell membranes, Membrane
# Details: nih3t3; Not Active = under 50% inhibition at 10 µM
Compound,IC50,Ki
C[C@]12CC[C@@H]3c4ccc(O)cc4CC[C@H]3[C@@H]1CCC2=O [ESTRONE],Not Active,Not Active
NC1=NC(=O)C(c2ccccc2)O1 (configuration not stated) [PEMOLINE],Not Active,Not Active
CN(C)c1nc(N(C)C)nc(N(C)C)n1 [ALTRETAMINE],Not Active,Not Active
CCn1cc(C(=O)O)c(=O)c2cc(F)c(N3CCNCC3)cc21 [NORFLOXACIN],Not Active,Not Active
CCCN1C[C@H](CSC)C[C@@H]2c3cccc4[nH]cc(c34)C[C@H]21 [PERGOLIDE],Not Active,Not Active
Clc1cccc(Cl)c1NC1=NCCN1 [CLONIDINE],Not Active,Not Active

# Biological target: T3, Cysteinyl leukotriene receptor 1 (Homo sapiens, UniProt Q9Y271); further: in other assays of this panel Not Active means under 50% inhibition at 10 µM
# T3 sequence (Q9Y271 whole entry): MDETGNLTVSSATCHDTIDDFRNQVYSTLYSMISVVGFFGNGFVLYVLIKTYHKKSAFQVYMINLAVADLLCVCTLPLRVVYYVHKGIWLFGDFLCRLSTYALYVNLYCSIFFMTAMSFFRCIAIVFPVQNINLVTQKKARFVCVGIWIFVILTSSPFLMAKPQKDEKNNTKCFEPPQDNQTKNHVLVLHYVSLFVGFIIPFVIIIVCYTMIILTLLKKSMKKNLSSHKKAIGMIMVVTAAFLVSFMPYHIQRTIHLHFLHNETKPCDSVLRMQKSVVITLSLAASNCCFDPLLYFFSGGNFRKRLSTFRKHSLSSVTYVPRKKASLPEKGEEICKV
# Assay type: cell membranes, CHO-K1, Membrane
# Details: cho-k1
row,Compound,IC50
1,C[C@]12CC[C@@H]3c4ccc(O)cc4CC[C@H]3[C@@H]1CCC2=O [ESTRONE],Not Active
2,NC1=NC(=O)C(c2ccccc2)O1 (configuration not stated) [PEMOLINE],Not Active
3,CN(C)c1nc(N(C)C)nc(N(C)C)n1 [ALTRETAMINE],Not Active
4,CCn1cc(C(=O)O)c(=O)c2cc(F)c(N3CCNCC3)cc21 [NORFLOXACIN],Not Active
5,CCCN1C[C@H](CSC)C[C@@H]2c3cccc4[nH]cc(c34)C[C@H]21 [PERGOLIDE],Not Active
6,Clc1cccc(Cl)c1NC1=NCCN1 [CLONIDINE],Not Active

# Biological target: cGMP-specific 3',5'-cyclic phosphodiesterase (Homo sapiens, UniProt O76074)
# Assay: DRUGMATRIX: Phosphodiesterase PDE5 enzyme inhibition (substrate: [3H]cGMP + cGMP)
# Assay type: tissue-based
# Details: platelet; Not Active = under 50% inhibition at 10 µM
row,Compound,IC50
1,C[C@]12CC[C@@H]3c4ccc(O)cc4CC[C@H]3[C@@H]1CCC2=O [ESTRONE],Not Active
2,NC1=NC(=O)C(c2ccccc2)O1 (configuration not stated) [PEMOLINE],Not Active
3,CN(C)c1nc(N(C)C)nc(N(C)C)n1 [ALTRETAMINE],Not Active
4,CCn1cc(C(=O)O)c(=O)c2cc(F)c(N3CCNCC3)cc21 [NORFLOXACIN],Not Active
5,CCCN1C[C@H](CSC)C[C@@H]2c3cccc4[nH]cc(c34)C[C@H]21 [PERGOLIDE],Not Active
6,Clc1cccc(Cl)c1NC1=NCCN1 [CLONIDINE],Not Active

# Biological target: Acetylcholinesterase (Homo sapiens, UniProt P22303)
# Assay: DRUGMATRIX: Acetylcholinesterase enzyme inhibition (substrate: acetylthiocholine)
# Assay type: cell-based, HEK293
# Details: hek293; Not Active = under 50% inhibition at 10 µM
# Acetylcholinesterase, sequence (P22303 whole entry): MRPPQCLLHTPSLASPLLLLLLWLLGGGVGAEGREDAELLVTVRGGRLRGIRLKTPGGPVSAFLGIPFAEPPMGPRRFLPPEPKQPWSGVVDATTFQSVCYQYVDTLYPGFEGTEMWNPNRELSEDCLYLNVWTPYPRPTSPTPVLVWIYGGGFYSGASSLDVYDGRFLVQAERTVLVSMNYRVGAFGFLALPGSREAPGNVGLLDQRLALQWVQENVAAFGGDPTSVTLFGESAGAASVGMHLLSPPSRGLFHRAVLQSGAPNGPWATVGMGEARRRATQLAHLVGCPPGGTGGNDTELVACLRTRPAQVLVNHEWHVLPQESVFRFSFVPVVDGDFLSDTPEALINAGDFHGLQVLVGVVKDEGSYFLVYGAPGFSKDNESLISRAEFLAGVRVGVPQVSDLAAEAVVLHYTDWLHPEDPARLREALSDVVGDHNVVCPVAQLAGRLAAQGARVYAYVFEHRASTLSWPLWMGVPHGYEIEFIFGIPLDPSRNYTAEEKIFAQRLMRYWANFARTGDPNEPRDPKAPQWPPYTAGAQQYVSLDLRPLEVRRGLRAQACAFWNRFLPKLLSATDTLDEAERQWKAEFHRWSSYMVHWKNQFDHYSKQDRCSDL
row,Compound,IC50
1,C[C@]12CC[C@@H]3c4ccc(O)cc4CC[C@H]3[C@@H]1CCC2=O [ESTRONE],Not Active
2,NC1=NC(=O)C(c2ccccc2)O1 (configuration not stated) [PEMOLINE],Not Active
3,CN(C)c1nc(N(C)C)nc(N(C)C)n1 [ALTRETAMINE],Not Active
4,CCn1cc(C(=O)O)c(=O)c2cc(F)c(N3CCNCC3)cc21 [NORFLOXACIN],Not Active
5,CCCN1C[C@H](CSC)C[C@@H]2c3cccc4[nH]cc(c34)C[C@H]21 [PERGOLIDE],Not Active
6,Clc1cccc(Cl)c1NC1=NCCN1 [CLONIDINE],Not Active

# Biological target: T4, Adenosine receptor A1 (Homo sapiens, UniProt P30542);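 further: radioligand binding assay at the adenosine A1 receptor, with DPCPX serving as the labelled ligand; in other assays of this panel Not Active means under 50% inhibition at 10 µM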
# T4 sequence (P30542 whole entry): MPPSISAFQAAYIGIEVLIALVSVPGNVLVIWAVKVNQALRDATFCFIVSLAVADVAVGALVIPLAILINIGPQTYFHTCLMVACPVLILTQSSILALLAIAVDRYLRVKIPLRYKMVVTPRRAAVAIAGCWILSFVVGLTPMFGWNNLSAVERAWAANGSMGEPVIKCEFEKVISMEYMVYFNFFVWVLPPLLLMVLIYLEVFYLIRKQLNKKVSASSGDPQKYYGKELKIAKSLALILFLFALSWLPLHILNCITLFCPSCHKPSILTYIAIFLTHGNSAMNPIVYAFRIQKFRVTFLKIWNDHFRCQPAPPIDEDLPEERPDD
# Assay type: cell membranes, CHO, Membrane
# Details: cho
row,Compound,IC50
1,C[C@]12CC[C@@H]3c4ccc(O)cc4CC[C@H]3[C@@H]1CCC2=O [ESTRONE],Not Active
2,NC1=NC(=O)C(c2ccccc2)O1 (configuration not stated) [PEMOLINE],Not Active
3,CN(C)c1nc(N(C)C)nc(N(C)C)n1 [ALTRETAMINE],Not Active
4,CCn1cc(C(=O)O)c(=O)c2cc(F)c(N3CCNCC3)cc21 [NORFLOXACIN],Not Active
5,CCCN1C[C@H](CSC)C[C@@H]2c3cccc4[nH]cc(c34)C[C@H]21 [PERGOLIDE],Not Active
6,Clc1cccc(Cl)c1NC1=NCCN1 [CLONIDINE],Not Active
